Laboratory results as given in ChEMBL document CHEMBL2073959, “The human bile salt export pump: characterization of substrate specificity and identification of inhibitors” (Gastroenterology, 2002).

Tests used:
Bile salt export pump [1] = target: T1, Bile salt export pump (Homo sapiens, UniProt O95342); experiment: TP_TRANSPORTER: competitive inhibition of Taurocholate uptake in membrane vesicles prepared from High Five cells infected with the ABCB11 baculovirus; type: functional, cell membranes, BTI-TN-5B1-4, Membrane vesicle
Bile salt export pump [2] = target: T1, Bile salt export pump; experiment: TP_TRANSPORTER: inhibition of Taurocholate uptake(Rifampicin SV 30uM, 50 % of control) in membrane vesicles prepared from High Five cells infected with the ABCB11 baculovirus; type: functional, cell membranes, BTI-TN-5B1-4, Membrane vesicle

T1 sequence (O95342 whole entry): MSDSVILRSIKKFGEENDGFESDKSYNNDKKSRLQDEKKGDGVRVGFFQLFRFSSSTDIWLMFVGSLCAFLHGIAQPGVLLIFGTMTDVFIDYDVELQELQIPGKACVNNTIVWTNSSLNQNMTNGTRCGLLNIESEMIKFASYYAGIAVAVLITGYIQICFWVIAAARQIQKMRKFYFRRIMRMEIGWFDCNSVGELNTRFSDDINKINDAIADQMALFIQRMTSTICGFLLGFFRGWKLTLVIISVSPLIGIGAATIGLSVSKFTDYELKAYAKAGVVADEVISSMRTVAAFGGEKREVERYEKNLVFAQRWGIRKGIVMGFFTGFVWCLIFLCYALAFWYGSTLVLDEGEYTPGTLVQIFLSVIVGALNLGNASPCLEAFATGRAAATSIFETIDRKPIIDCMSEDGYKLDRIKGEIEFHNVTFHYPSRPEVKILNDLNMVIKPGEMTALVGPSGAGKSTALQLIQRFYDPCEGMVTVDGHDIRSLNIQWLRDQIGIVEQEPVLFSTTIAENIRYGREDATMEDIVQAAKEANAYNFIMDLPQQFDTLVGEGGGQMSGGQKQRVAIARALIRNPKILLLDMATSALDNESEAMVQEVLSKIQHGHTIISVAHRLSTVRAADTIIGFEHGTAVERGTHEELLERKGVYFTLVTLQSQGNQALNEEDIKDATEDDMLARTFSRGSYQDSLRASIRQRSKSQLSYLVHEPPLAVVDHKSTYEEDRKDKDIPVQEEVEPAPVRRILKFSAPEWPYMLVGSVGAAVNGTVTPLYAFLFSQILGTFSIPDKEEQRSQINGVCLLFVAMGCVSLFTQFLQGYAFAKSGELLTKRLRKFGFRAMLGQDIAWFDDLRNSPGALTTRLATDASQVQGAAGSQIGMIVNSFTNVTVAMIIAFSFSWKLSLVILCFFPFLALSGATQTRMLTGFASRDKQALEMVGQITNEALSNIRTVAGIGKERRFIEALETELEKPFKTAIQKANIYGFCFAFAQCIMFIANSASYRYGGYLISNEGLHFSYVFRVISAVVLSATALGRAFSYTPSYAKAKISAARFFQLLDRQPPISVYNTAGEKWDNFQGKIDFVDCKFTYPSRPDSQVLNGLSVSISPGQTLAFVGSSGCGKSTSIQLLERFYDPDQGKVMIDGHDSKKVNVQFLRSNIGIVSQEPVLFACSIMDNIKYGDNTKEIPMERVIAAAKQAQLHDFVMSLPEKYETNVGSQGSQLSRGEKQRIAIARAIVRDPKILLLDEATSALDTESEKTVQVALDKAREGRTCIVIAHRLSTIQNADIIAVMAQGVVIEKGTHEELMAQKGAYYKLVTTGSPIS

| Ki (Bile salt export pump [1]) [µM] | Ki (Bile salt export pump [2]) [µM] | SMILES |
| --- | --- | --- |
| 28 |  | C[C@H](CCC(=O)NCCS(=O)(=O)O)[C@H]1CC[C@H]2[C@@H]3[C@H](O)C[C@@H]4C[C@H](O)CC[C@]4(C)[C@H]3CC[C@]12C [TAUROCHENODEOXYCHOLATE] |
|  | 31 | CO[C@H]1/C=C/O[C@@]2(C)Oc3c(C)c(O)c4c(O)c(cc(O)c4c3C2=O)NC(=O)/C(C)=C\C=C\[C@H](C)[C@H](O)[C@@H](C)[C@@H](O)[C@@H](C)[C@H](OC(C)=O)[C@@H]1C [RIFAMYCIN] |
| 11 |  | C[C@H](CCC(=O)NCC(=O)O)[C@H]1CC[C@H]2[C@@H]3[C@H](O)C[C@@H]4C[C@H](O)CC[C@]4(C)[C@H]3C[C@H](O)[C@]12C [GLYCOCHOLIC ACID] |

| SMILES | Ki (Bile salt export pump [1]) [µM] | Ki (Bile salt export pump [2]) [µM] |
| --- | --- | --- |
| C[C@H](CCC(=O)NCC(=O)O)[C@H]1CC[C@H]2[C@@H]3[C@H](O)C[C@@H]4C[C@H](O)CC[C@]4(C)[C@H]3CC[C@]12C [GLYCOCHENODEOXYCHOLATE] | 7 |  |
